According to patent US10745778B2, “Leaching aids and methods of using leaching aids” (BASF SE, priority 2015, dated 2020):

Experiment: Surface tension of synthetic pregnant leaching solution (Example 4)
Type: physicochemical
Conditions: synthetic PLS 6 g/L copper, 2 g/L iron, pH about 2.0
Description: This example investigated a method for determining the impact of a leaching aid on the surface tension of a typical leaching solution. A synthetic pregnant leaching solution (“PLS”) of 6 g/L copper and 2 g/L iron at a pH of about 2.0 was prepared in deionized (“DI”) water to form a quality control (“QC”) feed. To this, mixtures of synthetic PLS having varying levels of Leach aid A (i.e., MC1000) or Leach Aid B (i.e., TMP-7(EO)) were prepared and the surface tension of each solution was measured.

## CCCCCCCCCC[N+](C)(C)CC(=O)[O-] [MC1000]
  surface tension as a function of concentration of the leaching aid: decreased with increasing concentration
